{"source": "patent US20180036289A1", "about": "(Gilead Sciences, Inc., priority 2016, published 2018)", "system": "cell lines tested", "test": "Cell proliferation assay, summary across all cell lines and drugs", "type": "cell-based", "conditions": "compared to primary drug alone", "procedure": "All cell lines were obtained from the American Type Culture Collection (ATCC) Manassas, Va. (US). Master and working cell banks (MCB and WCB) were prepared by subculturing in ATCC-recommended media and freezing protocols (www.atcc.org). Cell line stocks for the assays were prepared from the WCB. The MCB, WCBs and assay stocks were prepared within respectively 3, 6 and 9 passages of the ATCC vial.\nSolid powders of reference compounds were weighed on a calibrated balance and dissolved in 100% DMSO. DMSO samples were stored at room temperature. At the day of the experiment, the compound stock was diluted in 3.16 fold steps in 100% DMSO to obtain a 9-point dilution series. This was further diluted 31.6 times in 20 mM sterile Hepes buffer pH 7.4. A volume of 5 μl was transferred to the cells to generate a test concentration range from 3.16×10^−5M to 3.16×10^−9 M in duplicate. The final DMSO concentration during incubation was […] in all wells.\nAn assay stock was thawed and diluted in its ATCC recommended medium and dispensed in a 384-well plate, depending on the cell line used, at a concentration of 200-3200 cells per well in 45 μl medium. For each used cell line the optimal cell density is used. The margins of the plate were filled with phosphate-buffered saline. Plated cells were incubated in a humidified atmosphere of 5% CO2 at 37° C. After 24 hours, 5 μl of compound dilution was added and plates were further incubated for another 120 hours. After 120 hours, 25 μl of ATPlite 1Step™ (PerkinElmer) solution was added to each well, and subsequently shaken for 2 minutes. After 10 minutes of incubation in the dark, the luminescence was recorded on an Envision multimode reader (PerkinElmer).\nIC50s were calculated by non-linear regression using IDBS XLfit 5. The percentage growth after 120 h (%-growth) was calculated as follows: 100%×(luminescencet=120h/luminescenceuntreated,t=120h). This was fitted to the ^10log compound concentration (conc) by a 4-parameter logistics curve: %−growth=bottom+(top−bottom)/(1+10^(log IC50-conc)*hill)), where hill is the Hill-coefficient, and bottom and top the asymptotic minimum and maximum cell growth that the compound allows in that assay.", "data": [{"smiles": "CC(C)c1nc(CN(C)C(=O)N[C@@H](CCN2CCOCC2)C(=O)N[C@H](CC[C@H](Cc2ccccc2)NC(=O)OCc2cncs2)Cc2ccccc2)cs1", "note": "[cobicistat]", "values": [{"measurement": "increase in sensitivity to the primary drug, maximum", "setting": "maximum across all experiments", "value": 8.7, "unit": "fold"}, {"measurement": "increase in sensitivity to the primary drug, average", "setting": "on average, across all experiments", "value": 2.9, "unit": "fold"}]}]}
